Data taken from PubChem BioAssay (NCI).
Values joined by “and” are separate entries in the source; they are usually repeats but may differ in a detail not shown here. Equal entries are not always repeated.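 Assay format: 96-well plates, 48-hour exposure. Abbreviation: GI50, concentration required for 50% inhibition of growth. TGI is the concentration that stops growth completely.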

Columns and labels:
Assay in all cases: inhibition of tumour cell growth, NCI panel, 48 h
[1] = tested on: CAKI-1 renal
[2] = tested on: HL-60(TB) leukemia
[3] = tested on: HOP-62 NSCLC
[4] = tested on: HT29 colon
[5] = tested on: KM12 colon
[6] = tested on: OVCAR-8 ovarian
[7] = tested on: SK-MEL-5 melanoma
[8] = tested on: SK-OV-3 ovarian
[9] = tested on: SNB-75 CNS
[10] = tested on: U251 CNS

SMILES: COc1cc(Nc2nc(N[C@H]3CCCC[C@@H]3N)nc3cc[nH]c(=O)c23)cc(OC)c1
- GI50 [1]: 1.84 µM
- TGI [1]: 10.9 µM
- GI50 [2]: 0.47 µM
- TGI [2]: 3.8 µM
- GI50 [3]: 3.21 µM
- TGI [3]: 20.8 µM
- GI50 [4]: 0.391 µM
- TGI [4]: 3.69 µM
- GI50 [5]: 0.422 µM
- TGI [5]: 3.11 µM
- GI50 [6]: 3.17 µM
- TGI [6]: 19.6 µM
- GI50 [7]: 1.22 µM
- TGI [7]: 6.06 µM
- GI50 [8]: 0.388 µM
- TGI [8]: 17.5 µM
- GI50 [9]: 3.27 µM
- TGI [9]: 17.3 µM
- GI50 [10]: 1.46 µM
- TGI [10]: 5.31 µM

SMILES: CN(C)c1ccc2cc(-c3ccccc3F)c(N)nc2c1
- GI50 [1]: 3.17 µM
- TGI [1]: 21 µM
- GI50 [2]: 0.419 µM
- TGI [2]: 9.36 µM
- GI50 [3]: 1.68 µM
- TGI [3]: 12.7 µM
- GI50 [4]: 0.529 µM
- TGI [4]: 11 µM
- GI50 [5]: 0.89 µM
- TGI [5]: 14.9 µM
- GI50 [6]: 3.71 µM
- TGI [6]: 15.8 µM
- GI50 [7]: 1.54 µM
- TGI [7]: 6.31 µM
- GI50 [8]: 2.52 µM
- TGI [8]: 12.2 µM
- GI50 [9]: 1.86 µM
- TGI [9]: 9.69 µM
- GI50 [10]: 1.24 µM
- TGI [10]: 12.7 µM

SMILES: CC1OC2CC(=O)OC2C2=C1C(=O)c1c(O)c3c(c(O)c1C2=O)C1CC(O)C3(O)C(C)O1 (centres undefined)
- GI50 [1]: 0.224 µM
- TGI [1]: 0.613 µM
- GI50 [2]: 0.234 µM
- TGI [2]: 1.06 µM
- GI50 [3]: 0.826 µM
- TGI [3]: 2.8 µM
- GI50 [4]: 0.229 µM
- TGI [4]: 1.14 µM
- GI50 [5]: 0.664 µM
- TGI [5]: 2.02 µM
- GI50 [6]: 0.271 µM
- TGI [6]: 3.5 µM
- GI50 [7]: 1.23 µM
- TGI [7]: 2.5 µM
- GI50 [8]: 3.24 µM
- TGI [8]: 11.1 µM
- GI50 [9]: 1.59 µM
- TGI [9]: 3.64 µM
- GI50 [10]: 0.296 µM
- TGI [10]: 1.07 µM

SMILES: CN=S(=O)(c1ccccc1)c1ccccc1
- TGI [1]: > 100 µM
- TGI [2]: > 100 µM
- TGI [3]: > 100 µM
- TGI [4]: > 100 µM
- TGI [5]: > 100 µM
- TGI [6]: > 100 µM
- TGI [7]: > 100 µM
- TGI [8]: > 100 µM
- TGI [9]: > 100 µM
- TGI [10]: > 100 µM

SMILES: CCC12CCCC(=O)N1C(CO)C(c1ccccc1)O2 (centres undefined)
- TGI [1]: > 100 µM
- TGI [3]: > 100 µM
- TGI [4]: > 100 µM
- TGI [5]: > 100 µM
- TGI [6]: > 100 µM
- TGI [7]: > 100 µM
- TGI [9]: > 100 µM
- TGI [10]: > 100 µM

SMILES: CO/N=C(\C)c1ccc(Nc2cc(-c3ccccc3)nc3c(O)cccc23)cc1
- GI50 [1]: 19.4 µM
- TGI [1]: 35.5 µM
- GI50 [2]: 48.4 µM
- TGI [2]: > 100 µM
- GI50 [3]: 17.6 µM
- TGI [3]: 34.8 µM
- GI50 [4]: 21.9 µM
- TGI [4]: 49.5 µM
- GI50 [6]: 13.6 µM
- TGI [6]: 33.9 µM
- GI50 [7]: 23.9 µM
- TGI [7]: 91.4 µM
- GI50 [8]: 18.8 µM
- TGI [8]: 35.5 µM
- GI50 [9]: 22.1 µM
- TGI [9]: 46.1 µM
- GI50 [10]: 13.3 µM
- TGI [10]: 27.2 µM

SMILES: CC1C(=O)C(C)C(c2ccccc2)N(N=O)C1c1ccccc1 (centres undefined)
- TGI [1]: > 700 µM
- TGI [2]: > 1000 µM
- GI50 [3]: 111 µM
- TGI [3]: > 78.3 µM and 360 µM
- TGI [4]: > 833 µM
- TGI [5]: > 684 µM
- GI50 [6]: 353 µM
- TGI [6]: > 946 µM
- TGI [7]: > 605 µM
- GI50 [8]: 103 µM
- TGI [8]: > 83.8 µM and 472 µM
- GI50 [9]: 27.2 µM
- TGI [9]: 64.7 µM and 80.6 µM
- GI50 [10]: 131 µM
- TGI [10]: > 92.4 µM and 397 µM

SMILES: CC(=O)Oc1ccc(O)c(O)c1C/C=C(\C)CC/C=C(\C)CC/C=C(\C)CCC=C(C)C
- TGI [1]: 8.03 µM
- TGI [2]: 4.11 µM
- TGI [3]: 2.81 µM
- TGI [4]: 1.18 µM
- TGI [5]: 11.5 µM
- TGI [6]: 1.79 µM
- TGI [9]: 1.92 µM
- TGI [10]: 1.28 µM

SMILES: Cc1ccc(NC(=O)/C(=N\Nc2ccc([N+](=O)[O-])cc2[N+](=O)[O-])C2C(=O)NC(=O)NC2=O)cc1
- TGI [1]: > 100 µM
- TGI [2]: > 100 µM
- TGI [3]: > 100 µM
- TGI [4]: > 100 µM
- TGI [5]: > 100 µM
- TGI [6]: > 100 µM
- TGI [7]: > 100 µM
- TGI [8]: > 100 µM
- TGI [9]: > 100 µM
- TGI [10]: > 100 µM

SMILES: CC(=O)NC1=C(C)C(=O)c2c(nc3n2CCC3O)C1=N (centres undefined)
- TGI [1]: 27.7 µM
- TGI [2]: > 100 µM
- TGI [3]: > 100 µM
- TGI [4]: 33.5 µM
- TGI [5]: 34.3 µM
- TGI [6]: 16.7 µM
- TGI [7]: 26.2 µM
- TGI [8]: 97.1 µM
- TGI [9]: 49.1 µM
- TGI [10]: 26.9 µM

SMILES: O=NNc1nc(-c2cccnc2)nc2ccccc12
- TGI [1]: > 100 µM
- TGI [2]: > 100 µM
- TGI [3]: > 100 µM
- TGI [4]: > 100 µM
- TGI [5]: > 100 µM
- TGI [6]: > 100 µM
- TGI [7]: > 100 µM
- TGI [8]: > 100 µM
- TGI [9]: > 100 µM
- TGI [10]: > 100 µM

SMILES: CC(=O)Nc1ccc2c(c1)oc(=O)c1cc(NC(C)=O)ccc12
- GI50 [1]: > 100 µM
- TGI [1]: > 100 µM
- GI50 [2]: 41.3 µM
- TGI [2]: > 100 µM
- GI50 [3]: > 100 µM
- TGI [3]: > 100 µM
- GI50 [4]: 54 µM
- TGI [4]: > 100 µM
- GI50 [5]: 21.7 µM
- TGI [5]: 52.5 µM
- GI50 [6]: > 100 µM
- TGI [6]: > 100 µM
- GI50 [7]: 96.5 µM
- TGI [7]: > 100 µM
- GI50 [8]: > 100 µM
- TGI [8]: > 100 µM
- GI50 [9]: > 100 µM
- TGI [9]: > 100 µM
- GI50 [10]: > 100 µM
- TGI [10]: > 100 µM

SMILES: O=C1C(Cl)=C(Nc2cccc(O)c2)C(=O)N1c1cc(Cl)c(Cl)cc1Cl
- GI50 [1]: 19.2 µM
- TGI [1]: 48.1 µM
- GI50 [3]: 21.3 µM
- TGI [3]: 36.9 µM
- GI50 [4]: 18 µM
- TGI [4]: 40 µM
- GI50 [5]: 16.5 µM
- TGI [5]: 34.3 µM
- GI50 [6]: 24 µM
- TGI [6]: 75.5 µM
- GI50 [7]: 11 µM
- TGI [7]: 23.3 µM
- GI50 [8]: 20.8 µM
- TGI [8]: 65.3 µM
- GI50 [9]: 16.4 µM
- TGI [9]: 31.3 µM
- GI50 [10]: 13.7 µM
- TGI [10]: 27.3 µM

SMILES: CC(C)C1CC(O)O[C@@H]([C@@H](C)[C@H]2CC(=O)[C@@H]3[C@@H]4[C@@H](O)[C@H](O)[C@H]5[C@@H](O)[C@H](O)CC[C@]5(C)[C@H]4CC[C@]23C)C1 (some centres undefined)
- TGI [2]: > 100 µM
- TGI [3]: 61.4 µM
- TGI [4]: > 100 µM
- TGI [5]: > 100 µM
- TGI [6]: > 100 µM
- TGI [7]: > 100 µM
- TGI [8]: > 100 µM
- TGI [9]: 54.3 µM
- TGI [10]: > 100 µM

SMILES: Cn1ccnc1C(=O)/C=C/c1ccc(CC(=O)Nc2ccccc2)cc1
- GI50 [2]: 1.57 µM
- TGI [2]: 9.35 µM
- GI50 [3]: 3.75 µM
- TGI [3]: 20.8 µM
- GI50 [4]: 2.4 µM
- TGI [4]: 6.82 µM
- GI50 [5]: 3.39 µM
- TGI [5]: 8.17 µM
- GI50 [6]: 6.44 µM
- TGI [6]: > 25 µM
- GI50 [7]: 4.18 µM
- TGI [7]: 7.9 µM
- GI50 [8]: 9.3 µM
- TGI [8]: > 25 µM
- GI50 [9]: > 25 µM
- TGI [9]: > 25 µM
- GI50 [10]: 1.57 µM
- TGI [10]: 5.27 µM

SMILES: CCCCCCCCCCCC[n+]1ccc(CCCCCCCCC)cc1
- GI50 [1]: 1.51 µM
- TGI [1]: 2.93 µM
- GI50 [2]: 0.362 µM
- TGI [2]: 1.83 µM
- GI50 [3]: 1.41 µM
- TGI [3]: 2.9 µM
- GI50 [8]: 1.51 µM
- TGI [8]: 2.89 µM
- GI50 [9]: 1.26 µM
- TGI [9]: 2.57 µM
